Columns and labels:
Assay type in all cases: in vivo
[1] = tested on: Corn Earworm (Helicoverpa zea, HELIZE, CEW); assay: Bioassay 7: corn earworm, artificial diet, 96 well plate
Description: (§1) The test solutions were tested against CEW, FAW, BAW, and SBL using the following procedure: an artificial lepidopteran diet (Multispecies Lepidopteran Diet, Southland Products) was distributed in 96 well plate. Twenty μL of test solution was pipetted onto a cell in the bioassay plate. […] Each treatment was replicated 5 times for each species. Approximately five first instar CEW, FAW, BAW, or SBL larva were placed on top of the diet in each cell and was contained with a clear perforated adhesive lid. Test trays were held at approximately 25° C. and ambient relative humidity prior to grading. After five days, the number of cells where all the larvae were dead were recorded as 100% and averaged across all replicates; then the percent control was measured using Abbott's correction formula (W. S. Abbott, J. Econ. Entomol. 18 (1925), pp. 265-267) as follows:
(§2) where X=No. of live larvae on solvent check and Y=No. of live larvae on treated diet. In Table 7 the “Expected % Control” was calculated using the method described in Colby S. R., Weeds, 1967, 15, 20-22. Bioassay 8: Western Corn Rootworm (Diabrotica virgifera virgifera, DIABVI, “WCR”)

[2] = tested on: Soybean Looper (Chrysodeixis includens, PSEPIN, SBL); assay: Bioassay 7: soybean looper, artificial diet, 96 well plate; details: CL
Description: as §1, §2

[3] = tested on: Beet Armyworm (Spodoptera exigua, LAPHEG, BAW); assay: Bioassay 7: beet armyworm, artificial diet, 96 well plate
Description: as §1, §2

[4] = tested on: Fall Armyworm (Spodoptera frugiperda, LAPHFR, FAW); assay: Bioassay 7: fall armyworm, artificial diet, 96 well plate
Description: as §1, §2

[5] = tested on: Green Peach Aphid (Myzus persicae, MYZUPE, GPA); assay: Bioassay 1: green peach aphid, cabbage seedling foliar spray; details: AI alone at the rate of Wt Ratio F1:AI 1:10256 (F1 0.04), 3 days
Description: Bioassay 1: Green Peach Aphid (Myzus persicae, MYZUPE, “GPA”).
Stock solutions of F1 and various active ingredients were prepared initially at a concentration of 4 milligrams per milliliter (mg/mL) for F1 and 0.1 mg/mL for the active ingredients, respectively, using a 1:1 mixture of acetone:methanol as a diluent. Stock solutions were prepared with F1 as well as for each of the active ingredients individually. Test solutions were prepared from the stock solutions. Test solutions were prepared containing F1, the individual active ingredients, and mixtures of F1 with each of the active ingredients. The test solutions for F1 and the individual active ingredients were prepared by adding 750 microliters (μL) of stock solution to a 25 mL glass vial, then adding 750 μL of 1:1 acetone:methanol solvent, followed by the addition of 13.5 mL water with 0.025% Tween® 20 to create a 0.0005% (weight/volume (w/v)) solution. The test solutions containing mixtures of F1, and the individual active ingredients were prepared by adding 750 μL of the active ingredient stock solution to a 25 mL glass vial, followed by 750 μL of the F1 stock solution, then by the addition of 13.5 mL water with 0.025% Tween® 20 to create a test solution containing 0.0005% (w/v) F1 and 0.0005% (w/v) of the active ingredient. Each test solution was serially diluted to create desired doses of test solutions (0.0005% (w/v), 0.000125% (w/v), 0.00003125% (w/v), 0.0000078% (w/v), 0.00000195% (w/v), and 0.0000005% (w/v)). In test solutions containing mixtures of F1 and the active ingredients, the active ingredients were diluted as described above, but the concentration of F1 was held constant (0.04% (w/v)).
The test solutions were tested against GPA using the following procedure: cabbage seedlings, grown in 3-inch pots with 2-3 small (3-5 centimeter (cm)) true leaves, were used as test substrate. The seedlings were infested with 20-50 GPA (wingless adult and nymph stages) one day prior to chemical application. Four pots with individual seedlings were used for each treatment. A hand-held aspirator-type sprayer was used for spraying a solution to both sides of […] leaves until runoff. Reference plants (solvent check) were sprayed with the diluent only (0.025% Tween® 20 and 10% acetone:methanol (1:1) in water). Treated plants were held in a holding room for three days at approximately 25° C. and ambient relative humidity (RH about 20% to about 45%) prior to grading. Evaluation was conducted by counting the number of live aphids per plant under a microscope three days after treatment. Percent control was measured using Abbott's correction formula (W. S. Abbott, J. Econ. Entomol. 18 (1925), pp. 265-267) as follows:
where X=No. of live aphids on solvent check plants and Y=No. of live aphids on treated plants. In Table B1 the “Expected % Control” was calculated using the method described in Colby S. R., Weeds, 1967, 15, 20-22. Bioassay 2: Sweet Potato Whitefly (Bemisia tabaci, BEMITA, “SPW”).

[6] = tested on: Corn Earworm (Helicoverpa zea, HELIZE, CEW); assay: Bioassay 4: corn earworm, artificial diet, 128-cell tray; details: AI alone
Description: (§3) Stock solutions were prepared with F1 as well as for each of the active ingredients individually. Test solutions were prepared from the stock solutions. Test solutions were prepared containing F1, the individual active ingredients, and mixtures of F1 with each of the active ingredients. The test solution for F1 was prepared by adding 500 μL of the stock solution to a 25 mL glass vial, then adding 500 μL of a 9:1 mixture of acetone:water. The individual active ingredients were prepared by adding 500 μL of stock solution to a 25 mL glass vial, then adding 500 μL of a 9:1 mixture of acetone:water. The test solutions containing mixtures of F1, and the individual active ingredients were prepared by adding 500 μL of the active ingredient stock solution to a 25 mL glass vial, followed by 500 μL of the F1 stock solution, creating a test solution containing 0.04% (w/v) of F1 and 0.4% (w/v) of the active ingredient. Each test solution was serially diluted to create desired doses of test solutions (F1 at 0.04% (w/v), 0.004% (w/v), 0.0004% (w/v), 0.00004% (w/v), 0.000004% (w/v), and 0.0000004% (w/v) and active ingredients at 0.4% (w/v), 0.04% (w/v), 0.004% (w/v), 0.0004% (w/v), 0.00004% (w/v), and 0.000004% (w/v)).
(§4) The test solutions were tested against CEW, FAW, and SBL using the following procedure: an artificial lepidopteran diet (Multispecies Lepidopteran Diet, Southland Products) was distributed in 128-cell bioassay trays (Frontier Agricultural Sciences™). 50 μL of test solution was pipetted into a cell in the bioassay tray. (The test solution doses of 0.04% (w/v), 0.004% (w/v), 0.0004% (w/v), 0.00004% (w/v), 0.000004% (w/v), and 0.0000004% (w/v) translated to concentrations of 5, 0.5, 0.05, 0.005, 0.0005, and 0.00005 μg/cm^2 on the diet, respectively.) A reference treatment (solvent check) was treated with the diluent only. Each treatment was replicated 8 times for each species. A 2nd instar CEW, FAW, or SBL larva was placed on top of the diet in each cell and was contained with a clear perforated adhesive lid. Test trays were held at approximately 26° C. and ambient relative humidity (RH) prior to grading.
(§5) After 5 days, the number of live larvae were recorded from each cell and percent control was measured using Abbott's correction formula (W. S. Abbott, J. Econ. Entomol. 18 (1925), pp. 265-267) as follows:
(§6) where X=No. of live larvae on solvent check and Y=No. of live larvae on treated diet. In Table B4 the “Expected % Control” was calculated using the method described in Colby S. R., Weeds, 1967, 15, 20-22. Bioassay 5: Neotropical Brown Stink Bug (Euschistus heros, EUSCHE, “BSB”).

[7] = tested on: Soybean Looper (Chrysodeixis includens, PSEPIN, SBL); assay: Bioassay 4: soybean looper, artificial diet, 128-cell tray; details: AI alone, 0.000004 wt %
Description: as §3, §4, §5, §6

[8] = tested on: Fall Armyworm (Spodoptera frugiperda, LAPHFR, FAW); assay: Bioassay 4: fall armyworm, artificial diet, 128-cell tray; details: AI alone, 0.000004 wt %
Description: as §3, §4, §5, §6

Compound	Average % Control AI ([3]; AI alone at 0.4 wt %) [%]	Average % Control AI ([1]; AI alone at 0.4 wt %) [%]	Average % Control AI ([2]; AI alone at 0.4 wt %) [%]	Average % Control AI ([4]; AI alone at 0.4 wt %) [%]	further results
CO/C=C(/C(=O)OC)c1ccccc1COc1cccc(C(F)(F)F)n1 [Picoxystrobin]	–	–	–	–	Average % Control AI ([1]; AI alone at 0.04 wt %): 0.0%; Average % Control AI ([2]; AI alone at 0.04 wt %): 0.0%; Average % Control AI ([3]; AI alone at 0.04 wt %): 0.0%
Cn1cc(C(=O)Nc2ccccc2-c2cc(F)c(F)c(F)c2)c(C(F)F)n1 [Fluxapyroxad]	0.0	–	–	–	–
CNC(=O)O/N=C(\SC)C(=O)N(C)C [Oxamyl]	0.0	0.0	0.0	0.0	–
Thiram	–	0.0	0.0	–	–
CCNc1nc(CC)c(C(=O)NC(C#N)c2cccs2)s1 (stereo not drawn) [Ethaboxam]	–	12.5	0.0	0.0	–
Trifloxystrobin	20.0	0.0	–	16.6	–
CCCC1COC(Cn2cncn2)(c2ccc(Cl)cc2Cl)O1 (stereo not drawn) [Propiconazole]	–	0.0	–	–	–
CC(C)c1ccc(Cl)cc1CN(C(=O)c1c(C(F)F)nn(C)c1F)C1CC1 [Isoflucypram]	0.0	–	0.0	–	–
Tebuconazole	–	0.0	–	–	–
COc1ccc(Cl)c(S(=O)(=O)NC(=O)c2cn3cc(C(F)(F)F)cc(Cl)c3n2)c1 [Fluazain dolizine]	0.0	–	–	–	–
[Cu+2].[OH-].[OH-] [Copper Hydroxide]	–	–	0.0	–	–
O=[N+]([O-])/N=C1\NCCN1Cc1ccc(Cl)nc1 [Imidacloprid]	–	–	–	–	Average % Control AI [5]: 40.5%; Average % Control AI ([6]; 0.000004 wt %): 0.0%; Average % Control AI ([6]; 0.00004 wt %): 0.0%; Average % Control AI [7]: 12.5%; Average % Control AI [8]: 0.0%
Cc1cc(C)c(C2=C(OC(=O)CC(C)(C)C)C3(CCCC3)OC2=O)c(C)c1 [Spiromesifen]	12.5	–	12.5	12.5	–
N#Cc1c[nH]cc1-c1cccc2c1OC(F)(F)O2 [Fludioxonil]	0.0	–	–	–	–
O=C(NCCc1ncc(C(F)(F)F)cc1Cl)c1ccccc1C(F)(F)F [Fluopyram]	0.0	–	–	–	–
CC1(C)CCC(Cc2ccc(Cl)cc2)C1(O)Cn1cncn1 (stereo not drawn) [Metconazole]	0.0	–	–	–	–
CN(C(=O)c1ccccc1)c1cccc(C(=O)Nc2c(Br)cc(C(F)(C(F)(F)F)C(F)(F)F)cc2C(F)(F)F)c1F [Broflanilide]	–	–	–	–	Average % Control AI ([4]; AI alone at 0.004 wt %): 0.0%
COC(=O)N(OC)c1ccccc1COc1ccn(-c2ccc(Cl)cc2)n1 [Pyraclostrobin]	–	–	–	–	Average % Control AI ([1]; AI alone at 0.04 wt %): 0.0%; Average % Control AI ([2]; AI alone at 0.04 wt %): 0.0%
CC(C)C1CCC(Cc2ccc(Cl)cc2)C1(O)Cn1cncn1 (stereo not drawn) [Ipconazole]	0.0	0.0	–	0.0	–
COc1ccc(Cl)c(S(=O)(=O)NC(=O)c2cn3cc(C(F)(F)F)cc(Cl)c3n2)c1 [Fluazaindolizine]	–	0.0	0.0	0.0	–
CO/C=C(/C(=O)OC)c1ccccc1Oc1cc(Oc2ccccc2C#N)ncn1 [Azoxystrobin]	0.0	–	–	–	–
CON(C(=O)c1cn(C)nc1C(F)F)C(C)Cc1c(Cl)cc(Cl)cc1Cl (stereo not drawn) [Pydiflumetofen]	0.0	–	0.0	0.0	–
Cc1cc(C(F)(F)F)nn1CC(=O)N1CCC(c2nc(C3=NOC(c4c(F)cccc4F)C3)cs2)CC1 (stereo not drawn) [Oxathiapiprolin]	–	0.0	0.0	–	–
CC(O)(Cn1cncn1)c1ccc(Oc2ccc(Cl)cc2)cc1C(F)(F)F (stereo not drawn) [Mefentrifluconazole]	0.0	0.0	–	–	–
O=S(=O)(CCC(F)=C(F)F)c1ncc(Cl)s1 [Fluensulfone]	0.0	0.0	12.5	0.0	–

— patent US20260182575A1, “MOLECULES HAVING PESTICIDAL UTILITY AND INTERMEDIATES AND PROCESSES RELATED THERETO” (CORTEVA AGRISCIENCE LLC, priority 2022, published 2026)
